Assay: Displacement of [3H]naltrindole from Opioid receptor delta 1 of guinea pig brain membranes
For C[C@H]1C2Cc3ccc(C(=O)Nc4ccccc4)cc3[C@@]1(C)CCN2CC1CC1 [3-cyclopropylmethyl-6,11-dimethyl-1,2,3,4,5,6-hexahydro-2,6-methano-benzo[d]azocine-8-carboxylic acid phenylamide], the Ki was 1.4 µM.
With C[C@H]1C2Cc3ccc(C#N)cc3[C@@]1(C)CCN2CC1CC1 [(6S,11R)-3-Cyclopropylmethyl-6,11-dimethyl-1,2,3,4,5,6-hexahydro-2,6-methano-benzo[d]azocine-8-carbonitrile] the Ki was 2.7 µM.
With C[C@@H]1[C@@H]2Cc3ccc(C(N)=O)cc3[C@]1(C)CCN2CC1CC1 [(6S,11R)-3-Cyclopropylmethyl-6,11-dimethyl-1,2,3,4,5,6-hexahydro-2,6-methano-benzo[d]azocine-8-carboxylic acid amide] the Ki was 0.57 µM.
With C[C@H]1[C@H]2Cc3ccc(C(N)=O)cc3[C@@]1(C)CCN2CC1CC1 [(6S,11R)-3-Cyclopropylmethyl-6,11-dimethyl-1,2,3,4,5,6-hexahydro-2,6-methano-benzo[d]azocine-8-carboxylic acid amide] the Ki was 0.0026 µM.
For C[C@H]1C2Cc3ccc(C(=O)N(C)C)cc3[C@@]1(C)CCN2CC1CC1 [(6S,11R)-3-Cyclopropylmethyl-6,11-dimethyl-1,2,3,4,5,6-hexahydro-2,6-methano-benzo[d]azocine-8-carboxylic acid dimethylamide], the Ki was greater than 35 µM.
With COC(=O)c1ccc2c(c1)[C@@]1(C)CCN(CC3CC3)C(C2)[C@@H]1C [(6S,11R)-3-Cyclopropylmethyl-6,11-dimethyl-1,2,3,4,5,6-hexahydro-2,6-methano-benzo[d]azocine-8-carboxylic acid methyl ester] the Ki was 0.059 µM.
Work on CNC(=O)c1ccc2c(c1)[C@@]1(C)CCN(CC3CC3)C(C2)[C@@H]1C [(6S,11R)-3-Cyclopropylmethyl-6,11-dimethyl-1,2,3,4,5,6-hexahydro-2,6-methano-benzo[d]azocine-8-carboxylic acid methylamide] yielded a Ki of 0.063 µM.
For C[C@H]1C2Cc3ccc(C(=O)O)cc3[C@@]1(C)CCN2CC1CC1 [(6S,11R)-3-Cyclopropylmethyl-6,11-dimethyl-1,2,3,4,5,6-hexahydro-2,6-methano-benzo[d]azocine-8-carboxylic acid], the Ki was 0.32 µM.

From BindingDB's records for doi:10.1016/s0960-894x(01)00014-2 (Rensselaer Polytechnic Institute, 2001)
